Assay results published in PMC5057115, “Cathelicidins in the Tasmanian devil (Sarcophilus harrisii)” (Scientific Reports, 2016).
Where no end group is shown, it is not given here.

Assays:
S. pneumoniae ATCC 49619 = experiment: microbe, parasite or virus in culture; type: cell-based; settings: ATCC 49619, 24 h
Description: (§1) Tissue expression of devil cathelicidin prepropeptides was determined by real-time PCR on a range of secretory, immune, reproductive, gastrointestinal and respiratory tissues, as well as BLAST searches of the milk transcriptome. Opportunistic tissue samples for real-time PCR were collected from Taronga Zoo (Sydney) from devils which were subject to euthanasia due to old age and advanced disease. The mature peptides of all six devil cathelicidins were synthesised by ChinaPeptides Co. Ltd. and their antimicrobial activity against bacterial and fungal pathogens determined by broth microdilution susceptibility assay according to clinical laboratory standards institute guidelines. Antimicrobial activity was expressed as minimum inhibitory concentration (MIC). Cytotoxicity was assessed in the human cell line A549 and haemolytic activity determined against human blood. Statistical significance of peptide effect on cell survival in comparison to the untreated control was calculated using a one sample t-test. Pouch microbiome analysis was performed on swabs from the pouch of lactating and non-lactating devils to detect changes in microbe populations. Pouch swab collection was carried out in accordance with the Save the Tasmanian Devil Program and was approved by the Animal Ethics Committee of the University of Sydney (permit number 681). […]
(§2) base (YNB) for fungi, from a concentration of 64μg/mL to 0.125μg/mL in a final volume of 100 μL .
(§3) Two antibiotics, ampicillin and tetracycline, were included as a positive control for bacteria, and the antifungal drug fluconazole for fungi. A well containing cells and media only was used as a “no drug” control to ensure that cultures grew normally. Bacteria were subcultured on Mueller Hinton agar (MHA) or Sheep blood agar (BA) for 24 hours at 35 °C for Staphylococcus spp., Pseudomonas spp., Enterococcus spp. and E.coli, with 5% CO2 for Streptococcus spp., K.pneumoniae, P.multocida, L.monocytogenes and N.asteroides. Similarly, fungi were subcultured on Sabouraud agar (SAB) at 35 °C for 24 hours prior to the test. Colonies were resuspended in saline and the OD530 measured with a McFarland reader. If necessary the suspension was diluted to 0.45-0.55 McFarland units with saline. Following a 1:150 dilution for bacteria and twostep dilution for fungi (1:50, 1:20), 100 μL of microorganisms (1x106 – 5 x10^5 cells/mL) were pipetted into wells 2-12, the first well acting as a negative control. Colony counts were performed using a 1:1000 dilution for bacteria and 1:10 for fungi spread onto MHA/BA or SAB plates respectively. The 96 well microdilution and agar plates were incubated for 24 hours at 35 °C (Escherichia coli, Staphylococcus spp., Enterococcus spp. and Pseudomonas spp.), with 5% CO2 (Streptococcus spp. Pasteurella multocida, Klebsiella pneumoniae, Listeria monocytogenes a nd Nocardia asteroids) for bacteria, and 35 °C for 48 hours (Candida spp .) or 72 hours (Cryptococcus spp.) for fungi. Assays Antimicrobial activity was expressed as minimum inhibitory concentration (MIC), which was defined as the lowest concentration of cathelicidin preventing visible growth, relative to the negative control. […]
(§4) DMEM and positive control of dimethylsulfoxide (DMSO) (1%) were also included. […]
(§5) 570nm and 620nm using the Victor 3 multilabel plate reader (PerkinElmer). The assay was performed on two separate occasions. To x i city of cathelicidins was calculated according to Invitrogen recommendations and expressed as percentage cell survival compared to the untreated growth control. A significant difference between cathelicidin treated and control cell survival was tested using a o ne sample t-test (p<0.05).
(§6) Haemolytic activity was assessed using 10mL of human blood collected into potassium -ED T A vacutainers (BD). The blood was washed three times with 30mL of calcium and magnesium -free Dulbecco’s phosphate buffered saline (DPBS) and cells were collected by centrifugation at 2000 x g […]
(§7) for 10 minutes. […]

[1] = system: C. parapsilosis ATCC 22019; experiment: microbe, parasite or virus in culture; type: cell-based; settings: broth microdilution (CLSI), YNB, 64 to 0.125 μg/mL, 48 hours at 35 °C; ATCC strain
Description: as §1, §2, §3, §4, §5, §6, §7

L. monocytogenes* = type: cell-based, Listeria monocytogenes; settings: broth microdilution (CLSI), 64 to 0.125 μg/mL, 24 h at 35 °C with 5% CO2; animal isolate
Description: as §1, with “populations.” for “populations. Pouch swab collection was carried out in accordance with the Save the Tasmanian Devil Program and was approved by the Animal Ethics Committee of the University of Sydney (permit number 681).”
(§8) Two antibiotics, ampicillin and tetracycline, were included as a positive control for bacteria, and the antifungal drug fluconazole for fungi. […] Colonies were resuspended in saline and the OD530 measured with a McFarland reader. […] Assays Antimicrobial activity was expressed as minimum inhibitory concentration (MIC), which was defined as the lowest concentration of cathelicidin preventing visible growth, relative to the negative control. […]
(§9) 570nm and 620nm using the Victor 3 multilabel plate reader (PerkinElmer). […] To x i city of cathelicidins was calculated according to Invitrogen recommendations and expressed as percentage cell survival compared to the untreated growth control. […]
(§10) Haemolytic activity was assessed using 10mL of human blood collected into potassium -ED T A vacutainers (BD). […]

C. gattii = type: cell-based, Cryptococcus gattii; settings: broth microdilution (CLSI), YNB, 64 to 0.125 μg/mL, 72 hours at 35 °C; human clinical isolate
Description: as §1, with “t-test.” for “t-test. Pouch microbiome analysis was performed on swabs from the pouch of lactating and non-lactating devils to detect changes in microbe populations. Pouch swab collection was carried out in accordance with the Save the Tasmanian Devil Program and was approved by the Animal Ethics Committee of the University of Sydney (permit number 681).”
as §8
(§11) DMEM and positive control of dimethylsulfoxide (DMSO) (1%) were also included. Following incubation for a further 24 hours, cell viability was determined using alamar blue (Invitrogen) which was added to each well. The plates were incubated for 24 hours, then the absorption measured at 570nm and 620nm using the Victor 3 multilabel plate reader (PerkinElmer). […] To x i city of cathelicidins was calculated according to Invitrogen recommendations and expressed as percentage cell survival compared to the untreated growth control. […]
(§12) Haemolytic activity was assessed using 10mL of human blood collected into potassium -ED T A […]

K. pneumoniae* = type: cell-based, Klebsiella pneumoniae; settings: broth microdilution (CLSI), 64 to 0.125 μg/mL, 24 h at 35 °C with 5% CO2; animal isolate
Description: as §1, with “t-test.” for “t-test. Pouch microbiome analysis was performed on swabs from the pouch of lactating and non-lactating devils to detect changes in microbe populations. Pouch swab collection was carried out in accordance with the Save the Tasmanian Devil Program and was approved by the Animal Ethics Committee of the University of Sydney (permit number 681).”
as §8, §11, §12

S. aureus ATCC 29213 = experiment: microbe, parasite or virus in culture; type: cell-based, Staphylococcus aureus; settings: ATCC 29213, 24 h
Description: as §1, §2
(§13) Two antibiotics, ampicillin and tetracycline, were included as a positive control for bacteria, and the antifungal drug fluconazole for fungi. A well containing cells and media only was used as a “no drug” control to ensure that cultures grew normally. Bacteria were subcultured on Mueller Hinton agar (MHA) or Sheep blood agar (BA) for 24 hours at 35 °C for Staphylococcus spp., Pseudomonas spp., Enterococcus spp. and E.coli, with 5% CO2 for Streptococcus spp., K.pneumoniae, P.multocida, L.monocytogenes and N.asteroides. Similarly, fungi were subcultured on Sabouraud agar (SAB) at 35 °C for 24 hours prior to the test. Colonies were resuspended in saline and the OD530 measured with a McFarland reader. If necessary the suspension was diluted to 0.45-0.55 McFarland units with saline. […] Assays Antimicrobial activity was expressed as minimum inhibitory concentration (MIC), which was defined as the lowest concentration of cathelicidin preventing visible growth, relative to the negative control. […]
as §9, §10

C. neoformans = type: cell-based, Cryptococcus neoformans; settings: broth microdilution (CLSI), YNB, 64 to 0.125 μg/mL, 72 hours at 35 °C; human clinical isolate
Description: as §1, with “t-test.” for “t-test. Pouch microbiome analysis was performed on swabs from the pouch of lactating and non-lactating devils to detect changes in microbe populations. Pouch swab collection was carried out in accordance with the Save the Tasmanian Devil Program and was approved by the Animal Ethics Committee of the University of Sydney (permit number 681).”
as §8, §11, §12

C. albicans = type: cell-based; settings: broth microdilution (CLSI), YNB, 64 to 0.125 μg/mL, 48 hours at 35 °C; human clinical isolate
Description: as §1, §2, §3
(§14) DMEM and positive control of dimethylsulfoxide (DMSO) (1%) were also included. Following incubation for a further 24 hours, cell viability was determined using alamar blue (Invitrogen) which was added to each well. The plates were incubated for 24 hours, then the absorption measured at 570nm and 620nm using the Victor 3 multilabel plate reader (PerkinElmer). The assay was performed on two separate occasions. To x i city of cathelicidins was calculated according to Invitrogen recommendations and expressed as percentage cell survival compared to the untreated growth control. A significant difference between cathelicidin treated and control cell survival was tested using a o ne sample t-test (p<0.05).
as §12
(§15) vacutainers (BD). […]

E. faecalis = type: cell-based, Enterococcus faecalis; settings: broth microdilution (CLSI), 64 to 0.125 μg/mL, 24 h at 35 °C; human clinical isolate
Description: as §1, §2, §3, §14, §12, §15

[2] = system: Vancomycin resistant E. faecalis (VREF); type: cell-based, Enterococcus faecalis; settings: broth microdilution (CLSI), 64 to 0.125 μg/mL, 24 h at 35 °C, human clinical isolate
Description: as §1, §2, §3, §14, §12, §15

P. multocida* = type: cell-based, Pasteurella multocida; settings: broth microdilution (CLSI), 64 to 0.125 μg/mL, 24 h at 35 °C with 5% CO2; animal isolate
Description: as §1, with “t-test.” for “t-test. Pouch microbiome analysis was performed on swabs from the pouch of lactating and non-lactating devils to detect changes in microbe populations. Pouch swab collection was carried out in accordance with the Save the Tasmanian Devil Program and was approved by the Animal Ethics Committee of the University of Sydney (permit number 681).”
as §8, §11, §12

C. krusei ATCC 6258 = type: cell-based, Candida krusei; settings: broth microdilution (CLSI), YNB, 64 to 0.125 μg/mL, 48 hours at 35 °C; ATCC strain
Description: as §1, with “t-test.” for “t-test. Pouch microbiome analysis was performed on swabs from the pouch of lactating and non-lactating devils to detect changes in microbe populations. Pouch swab collection was carried out in accordance with the Save the Tasmanian Devil Program and was approved by the Animal Ethics Committee of the University of Sydney (permit number 681).”
as §8, §11, §12

E. coli = type: cell-based, Escherichia coli; settings: broth microdilution (CLSI), 64 to 0.125 μg/mL, 24 h at 35 °C; human clinical isolate
Description: as §1, with “t-test.” for “t-test. Pouch microbiome analysis was performed on swabs from the pouch of lactating and non-lactating devils to detect changes in microbe populations. Pouch swab collection was carried out in accordance with the Save the Tasmanian Devil Program and was approved by the Animal Ethics Committee of the University of Sydney (permit number 681).”
as §8, §11, §12

E. coli ATCC 25922 = experiment: microbe, parasite or virus in culture; type: cell-based, Escherichia coli; settings: ATCC 25922, 24 h
Description: as §1, §2, §13, §9, §10

P. aeruginosa ATCC 27853 = experiment: microbe, parasite or virus in culture; type: cell-based, Pseudomonas aeruginosa; settings: ATCC 27853, 24 h
Description: as §1, §2, §13, §9, §10

E. faecalis ATCC 29212 = experiment: microbe, parasite or virus in culture; type: cell-based, Enterococcus faecalis; settings: ATCC 29212, 24 h
Description: as §1, §2, §13, §9, §10

| Sequence | MIC (S. pneumoniae ATCC 49619) | MIC [1] | MIC (L. monocytogenes*) | MIC (C. gattii) | MIC (K. pneumoniae*) | MIC (S. aureus ATCC 29213) | MIC (C. neoformans) | MIC (C. albicans) | MIC (E. faecalis) | MIC [2] | MIC (P. multocida*) | MIC (C. krusei ATCC 6258) | MIC (E. coli) | MIC (E. coli ATCC 25922) | MIC (P. aeruginosa ATCC 27853) | MIC (E. faecalis ATCC 29212) |
| --- | --- | --- | --- | --- | --- | --- | --- | --- | --- | --- | --- | --- | --- | --- | --- | --- |
| KRIGLIRLIGKILRGLRRLG [Saha-CATH5] | 64 µg/mL | >64 µg/mL | >64 µg/mL | 64 µg/mL | >64 µg/mL | 64 µg/mL | 32 µg/mL | >64 µg/mL | >64 µg/mL | 32 µg/mL | >64 µg/mL | 64 µg/mL | 32 µg/mL | 32 µg/mL | >64 µg/mL | >64 µg/mL |
| KRIRFFERIRDRLRDLGNRIKNRIRDFFS [Saha-CATH6] | 64 µg/mL | >64 µg/mL | >64 µg/mL | 64 µg/mL | >64 µg/mL | >64 µg/mL | 64 µg/mL | >64 µg/mL | >64 µg/mL | 64 µg/mL | >64 µg/mL | 64 µg/mL | >64 µg/mL | >64 µg/mL | >64 µg/mL | >64 µg/mL |
| KRMGIFHLFWAGLRKLGNLIKNKIQQGIENFLG [Saha-CATH3] | >64 µg/mL | >64 µg/mL | >64 µg/mL | >64 µg/mL | >64 µg/mL | >64 µg/mL | 16 µg/mL | >64 µg/mL | >64 µg/mL | >64 µg/mL | >64 µg/mL | >64 µg/mL | >64 µg/mL | >64 µg/mL | >64 µg/mL | >64 µg/mL |
